Columns and labels:
SK-N-MC cells = assay: Cell viability in SK-N-MC cells; type: cell-based, human
Y1Rs = target: T1, Y1Rs (Homo sapiens, UniProt P25929); conditions: cited from earlier work
T1 sequence (P25929 1-384): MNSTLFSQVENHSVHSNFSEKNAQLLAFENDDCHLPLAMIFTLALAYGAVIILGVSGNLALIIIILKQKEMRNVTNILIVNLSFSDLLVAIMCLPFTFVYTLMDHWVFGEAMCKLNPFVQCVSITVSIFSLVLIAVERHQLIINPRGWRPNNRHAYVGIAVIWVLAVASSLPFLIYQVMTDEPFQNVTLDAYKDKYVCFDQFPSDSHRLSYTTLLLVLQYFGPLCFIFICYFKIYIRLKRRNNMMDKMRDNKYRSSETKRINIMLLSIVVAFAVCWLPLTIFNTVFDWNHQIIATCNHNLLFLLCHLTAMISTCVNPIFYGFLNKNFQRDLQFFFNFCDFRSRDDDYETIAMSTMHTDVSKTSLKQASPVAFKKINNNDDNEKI

Substance	decrease in cell viability (SK-N-MC cells)	activity at Y1Rs (Y1Rs)
NPY 1-36: 36-amino acid peptide neurotransmitter found in the brain and autonomic nervous system	decrease in cell viability was achieved	–
NPY 3-36: 34-amino acid peptide fragment formed by dipeptidyl peptidase IV (DPPIV) cleavage of NPY 1-36	not	inactive
